Assay results taken from patent US10537550B2, “Methods of treating underlying inflammation from COPD or asthma” (MEDA PHARMA GMBH & CO. KG, priority 2004, dated 2020).
Read-outs that look alike come from different tables or passages of the source.

Experiments:
[1] = tested on: TNFα release from human peripheral blood mononuclear cells (PBMCs); experiment: LPS-induced TNFα release from human PBMCs/monocytes (sandwich ELISA); assay type: cell-based; conditions: LPS 1 μg/ml; for IC50: Homo sapiens, PBMC, read-out: IC50 of inhibition of TNFα release
Protocol: The influence of R,R-glycopyrrolate in combination with glucocorticoids on TNFα release was investigated by using human peripheral blood mononuclear cells (PBMCs). The study was approved by our institutional Ethics Committee according to the International Declarations of Helsinki and Tokyo. PBMCs were isolated from heparinized blood samples of healthy donors by density gradient centrifugation. An equal volume of Hanks buffer (Life Technologies, Heidelberg, Germany) is added to heparinized whole blood samples. 15 ml Histopaque-1077 (Sigma, Deisenhofen, Germany) are overlayed with a maximum of 40 ml of blood/Hanks mixture were centrifuged for 30 min at room temperature (2000 rpm). A visible band containing PBMCs is transferred to a fresh tube and washed twice with Hanks-buffer. Finally cells are seeded in RPMI 1640 Medium (Life Technologies, Heidelberg, Germany) with Glutamax I (Gibco BRL, Eggenstein) and 10% FCS (Boehringer Mannheim, Penzberg, Germany). After isolated, PBMCs were cultured in RPMI 1640 medium supplemented with 10% fetal calf serum (FCS) at 37° C. 5% CO2 overnight. Monocytes were isolated from other cells by adherence method, non-adherent cells were removed by changing the medium. Cells are re-suspended at 10^6 cells/ml and incubated in 500 μl volumes in 24-well tissue culture plates (Falcon Becton Dickinson Labware) at 37° C., 5% CO2. After pre-incubation with test substances (0.5 μl/500 μl medium) for 30 min, cells were stimulated with lipopolysaccharide (LPS) (1 μg/ml). At indicated times cells were sedimented by centrifugation, the supernatants were harvested and kept frozen at −80° C. until protein determination; the cells were lysed by RLT lysis Buffer (Qiagen, Hilden, Germany) and frozen at −80° C. until analysis. […] Plates are read at 450 nm (reference 570 nm) in a microplate reader (Dynatech). The results are expressed as a percentage of the control level of cytokines production by cells stimulated in the absence of the compound.

[2] = tested on: pulmonary M1 and M3 muscarinic receptor subtypes; conditions: following inhalation of single doses; cited from earlier work
[3] = in vivo; cited from earlier work

Compound: C[N+]1(C)CC[C@@H](OC(=O)[C@](O)(c2ccccc2)C2CCCC2)C1.[Br-] [R,R-glycopyrrolate]
- influence on LPS-induced TNFα release ([1]; alone, up to 10 μmol/l, human monocytes): did not influence

Compound: C[N+]1(C)[C@@H]2C[C@@H](OC(=O)C(O)(c3cccs3)c3cccs3)C[C@H]1[C@@H]1O[C@@H]12 [Tiotropium]
- duration of bronchodilation [2]: 24 h

Compound: C[C@@H]1C[C@H]2[C@@H]3C[C@H](F)C4=CC(=O)C=C[C@]4(C)[C@@]3(F)[C@@H](O)C[C@]2(C)[C@@]1(O)C(=O)SCF [fluticasone]
- oral bioavailability [3]: < 1%

Compound: CCCC1O[C@@H]2C[C@H]3[C@@H]4CCC5=CC(=O)C=C[C@]5(C)[C@H]4[C@@H](O)C[C@]3(C)[C@]2(C(=O)CO)O1 (some centres unmarked) [budesonide]
- IC50 ([1]; budesonide alone, human monocytes): 550 ± 130 pM
- IC50 ([1]; simultaneous addition of 10 μmol/l R,R-glycopyrrolate, p=0.0251): 130 ± 30 pM
